Results: patent publication US9540348B2, “Imidazole-1-yl pyrimidine derivatives, or pharmacutically acceptable salt thereof, and pharmaceutic composition comprising the same as an active ingredient” (Industry-University Cooperation Foundation Hanyang …, priority 2015, dated 2017)
Entries after “also recorded” stand apart in the source; their conditions may differ.

How the values were obtained:
[1] = molecular target: CDK1/cyclin B (Homo sapiens, UniProt P06493); assay: Kinase panel screening; format: biochemical; conditions: 10 μM concentration; read-out: Inhibition Rate (Unit: %) CDK1/cyclin B
Sequence of CDK1/cyclin B (P06493 whole entry, species assumed): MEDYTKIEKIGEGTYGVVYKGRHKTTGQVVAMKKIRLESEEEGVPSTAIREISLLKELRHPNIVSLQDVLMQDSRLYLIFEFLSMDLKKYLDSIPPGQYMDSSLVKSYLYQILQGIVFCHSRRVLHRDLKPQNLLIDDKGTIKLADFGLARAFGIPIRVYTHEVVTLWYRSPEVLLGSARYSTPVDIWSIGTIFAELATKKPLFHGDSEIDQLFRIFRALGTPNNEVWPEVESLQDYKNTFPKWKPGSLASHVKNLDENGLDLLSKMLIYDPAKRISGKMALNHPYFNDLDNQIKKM
Sequence of CDK1/cyclin B (P14635 whole entry partner, species assumed): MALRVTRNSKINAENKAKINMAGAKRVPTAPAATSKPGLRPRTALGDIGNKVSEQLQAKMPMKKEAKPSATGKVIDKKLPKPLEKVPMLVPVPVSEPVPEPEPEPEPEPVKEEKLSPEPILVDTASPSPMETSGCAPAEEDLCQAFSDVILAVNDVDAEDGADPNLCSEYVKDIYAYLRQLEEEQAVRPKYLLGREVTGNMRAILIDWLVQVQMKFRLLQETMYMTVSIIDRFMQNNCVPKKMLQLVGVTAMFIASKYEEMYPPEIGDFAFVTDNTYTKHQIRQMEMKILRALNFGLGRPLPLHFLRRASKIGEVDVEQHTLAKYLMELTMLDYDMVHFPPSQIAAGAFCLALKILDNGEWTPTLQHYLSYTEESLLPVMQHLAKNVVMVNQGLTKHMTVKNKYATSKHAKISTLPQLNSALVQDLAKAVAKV
Method: (§1) To Compound 10c of Example 23, kinase panel screening was carried out to 32 kinds of kinases in 10 μM concentration and the results are listed in the following Table 2.

[2] = molecular target: ERK1 (Homo sapiens, UniProt P27361); assay: Kinase panel screening; format: biochemical; conditions: 10 μM concentration; read-out: Inhibition Rate (Unit: %) ERK1
Sequence of ERK1 (P27361 whole entry, species assumed): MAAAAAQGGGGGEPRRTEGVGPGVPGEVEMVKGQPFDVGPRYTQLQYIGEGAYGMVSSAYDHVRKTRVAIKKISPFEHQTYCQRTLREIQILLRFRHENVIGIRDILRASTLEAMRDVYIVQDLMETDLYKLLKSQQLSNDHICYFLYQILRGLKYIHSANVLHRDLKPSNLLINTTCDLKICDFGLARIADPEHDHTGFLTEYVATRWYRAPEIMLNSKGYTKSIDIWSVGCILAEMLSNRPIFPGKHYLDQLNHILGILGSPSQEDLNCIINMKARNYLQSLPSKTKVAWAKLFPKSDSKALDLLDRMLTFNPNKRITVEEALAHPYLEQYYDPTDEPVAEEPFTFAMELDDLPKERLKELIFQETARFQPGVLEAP
Method: as §1

[3] = molecular target: LCK (Homo sapiens, UniProt P06239); assay: Kinase panel screening; format: biochemical; conditions: 10 μM concentration; read-out: Inhibition Rate (Unit: %) LCK
Sequence of LCK (P06239 whole entry, species assumed): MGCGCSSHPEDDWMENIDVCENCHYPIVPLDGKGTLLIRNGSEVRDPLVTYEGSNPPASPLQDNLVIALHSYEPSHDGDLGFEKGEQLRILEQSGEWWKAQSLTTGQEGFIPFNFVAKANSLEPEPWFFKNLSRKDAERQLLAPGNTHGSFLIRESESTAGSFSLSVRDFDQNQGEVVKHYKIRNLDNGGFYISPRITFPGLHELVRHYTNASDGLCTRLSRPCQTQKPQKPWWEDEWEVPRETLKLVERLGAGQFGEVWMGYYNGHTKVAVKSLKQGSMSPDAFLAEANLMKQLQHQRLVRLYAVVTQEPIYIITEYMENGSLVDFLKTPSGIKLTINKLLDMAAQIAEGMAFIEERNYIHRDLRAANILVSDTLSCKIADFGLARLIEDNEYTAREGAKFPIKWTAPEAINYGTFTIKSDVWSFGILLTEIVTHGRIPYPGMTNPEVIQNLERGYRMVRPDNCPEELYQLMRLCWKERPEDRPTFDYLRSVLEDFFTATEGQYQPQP
Method: as §1

[4] = molecular target: LYN (Homo sapiens, UniProt P07948); assay: Kinase panel screening; format: biochemical; conditions: 10 μM concentration; read-out: Inhibition Rate (Unit: %) LYN
Sequence of LYN (P07948 whole entry, species assumed): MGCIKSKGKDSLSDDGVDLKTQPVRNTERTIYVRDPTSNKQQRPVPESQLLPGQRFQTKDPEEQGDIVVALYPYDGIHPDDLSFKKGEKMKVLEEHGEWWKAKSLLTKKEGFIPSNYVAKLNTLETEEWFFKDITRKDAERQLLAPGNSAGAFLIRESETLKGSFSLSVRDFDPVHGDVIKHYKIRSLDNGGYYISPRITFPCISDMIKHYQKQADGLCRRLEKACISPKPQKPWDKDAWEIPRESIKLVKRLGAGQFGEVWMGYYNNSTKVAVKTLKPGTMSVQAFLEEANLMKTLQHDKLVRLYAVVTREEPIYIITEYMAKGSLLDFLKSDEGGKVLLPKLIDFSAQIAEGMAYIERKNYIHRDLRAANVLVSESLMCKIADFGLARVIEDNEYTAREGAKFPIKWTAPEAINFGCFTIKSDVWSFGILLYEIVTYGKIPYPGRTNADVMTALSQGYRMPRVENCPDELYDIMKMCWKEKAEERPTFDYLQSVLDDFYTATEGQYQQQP
Method: as §1

[5] = system: PKA; assay: Kinase panel screening; format: biochemical; conditions: 10 μM concentration
Method: as §1

[6] = system: most other kinases except cKit (KIT) and p38a (MAPK14); assay: Kinase panel screening, summary for the other kinases; format: biochemical; conditions: 10 μM concentration
Method: as §1

[7] = system: U937 human leukemic monocyte lymphoma cell line; assay: Antiproliferative activity to U937 human leukemic monocyte lymphoma cell line; format: cell-based
Method: The antiproliferative activity of the compounds of Examples to A375P human melanoma cell line and U937 human leukemic monocyte lymphoma cell line are evaluated and listed in the following Table 1.

[8] = molecular target: wild-type BRAF (Homo sapiens, UniProt P15056); assay: Enzymatic activity (IC50) to kinases; format: biochemical; conditions: read-out: IC50 (Unit: nM) BRAF
Sequence of wild-type BRAF (P15056 whole entry): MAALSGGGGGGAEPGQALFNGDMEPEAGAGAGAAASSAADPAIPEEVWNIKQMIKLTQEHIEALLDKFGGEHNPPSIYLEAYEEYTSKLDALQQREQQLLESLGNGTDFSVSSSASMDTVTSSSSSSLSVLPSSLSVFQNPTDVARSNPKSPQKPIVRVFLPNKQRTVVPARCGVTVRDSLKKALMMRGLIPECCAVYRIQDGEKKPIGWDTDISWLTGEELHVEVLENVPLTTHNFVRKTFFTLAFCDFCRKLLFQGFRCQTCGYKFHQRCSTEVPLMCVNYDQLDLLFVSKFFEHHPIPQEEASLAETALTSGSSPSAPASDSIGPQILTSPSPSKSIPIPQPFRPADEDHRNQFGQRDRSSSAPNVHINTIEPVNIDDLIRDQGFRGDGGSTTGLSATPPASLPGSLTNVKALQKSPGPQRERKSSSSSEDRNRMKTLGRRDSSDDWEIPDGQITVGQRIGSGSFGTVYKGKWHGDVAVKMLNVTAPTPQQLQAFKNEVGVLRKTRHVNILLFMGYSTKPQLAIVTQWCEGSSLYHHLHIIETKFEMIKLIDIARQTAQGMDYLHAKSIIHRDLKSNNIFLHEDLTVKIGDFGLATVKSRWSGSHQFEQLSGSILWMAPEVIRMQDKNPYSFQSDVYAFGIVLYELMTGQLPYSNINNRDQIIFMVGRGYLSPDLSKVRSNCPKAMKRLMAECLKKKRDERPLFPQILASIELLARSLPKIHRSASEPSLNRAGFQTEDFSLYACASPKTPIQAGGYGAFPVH

[9] = molecular target: P38a/MAPK14 (Homo sapiens, UniProt Q16539); assay: Enzymatic activity (IC50) to kinases; format: biochemical; conditions: read-out: IC50 (Unit: nM) P38a/MAPK14
Sequence of P38a/MAPK14 (Q16539 whole entry): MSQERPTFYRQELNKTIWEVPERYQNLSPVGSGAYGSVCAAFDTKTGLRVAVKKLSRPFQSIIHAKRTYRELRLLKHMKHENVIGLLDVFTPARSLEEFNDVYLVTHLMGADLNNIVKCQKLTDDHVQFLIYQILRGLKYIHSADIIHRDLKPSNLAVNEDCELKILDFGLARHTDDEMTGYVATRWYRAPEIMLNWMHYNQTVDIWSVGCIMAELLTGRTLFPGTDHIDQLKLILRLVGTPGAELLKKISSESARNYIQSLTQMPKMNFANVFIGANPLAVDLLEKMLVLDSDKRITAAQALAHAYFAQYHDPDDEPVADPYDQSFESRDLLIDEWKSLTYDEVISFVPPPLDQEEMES

For `C[C@H](O)CNc1nccc(-n2ccnc2Cc2cccc(NC(=O)Nc3ccc(C(F)(F)F)c(Cl)c3)c2)n1` [Example 23, (S)-1-(3-chloro-4-(trifluoromethyl)phenyl)-3-(3-((1-(2-((2-hydroxypropyl)amino)pyrimidin-4-yl)-1H-imidazol-2-yl)methyl)phenyl)urea], the inhibition at 10 µM [1] was 34.8%, the inhibition at 10 µM [2] was 0% and the inhibition at 10 µM [3] was 5.8%. The inhibition at 10 µM [4] was 8.1%, the “Inhibition Rate (Unit: %) PKA” value [5] was 0% and the “inhibition rate to most other kinases” value [6] was “less than 30%”. For the same compound, the “potency against U937, in words” value ([7]; U937 cell line, comparison with Sorafenib) was “large potencies; also recorded: better potencies than Sorafenib”, the GI50 ([7]; U-937, U937 human leukemic monocyte lymphoma cell line, read-out: U937 (GI50, Unit: μM)) was 2.73 µM and the IC50 [8] was 186 nM. It also gave an IC50 [9] of 571 nM.
